Results taken from US20250388571A1, “AMP-ACTIVATED PROTEIN KINASE MODULATOR COMPOUNDS AND USES THEREOF” (Biolexis Therapeutics, Inc., priority 2024, published 2025).
Where two headings read alike, the source gives them in different places.

Legend:
[1] = PK oral bioavailability experiment, rat; assay type: in vivo, male Wistar rat
Description: A total of 18 male Wistar rats were allotted for the study. Animals were allotted in to 2 groups of 9 rat per each group. In each group, first set of three animals were used for PK study, next set of three and followed by other set of three animals were used for 0.5 h and 1 h brain, CSF, and blood collection purpose for intravenous and oral groups, respectively. On day of dosing all the animals were fasted overnight.
Approximately 0.3 mL of blood sample from each animal was collected via jugular vein at predetermined time points at 0.083 (only IV), 0.25, 0.5, 1, 2, 4, 6, 8 and 24 h intervals in pre-labeled Eppendorf tubes containing anticoagulant K2EDTA (20 μL per mL of blood). Blood sample was centrifuged at 5000 rpm for 10 min under refrigeration (2-4° C.) to obtain plasma. For brain and CSF uptake study, after 0.5 h and 1 h CSF and whole brain was withdrawn, and brain tissue was homogenized as a terminal sampling. Blood samples were centrifuged under refrigeration (2-4° C.) within 0.5 h to obtain plasma. The separated plasma samples were collected in pre labeled tubes within 60 min of separation and stored at −20° C. up to 24 h. Post 24 h sample collection, all plasma samples were transferred to deep freezer custodian to store below or at −70° C. till shipment.
Brain tissues were blotted and dried and then transferred to 15 mL falcon tubes. Initially all tissue samples were stored at −20±3° C. Later, all brain tissue samples were homogenized with PBS at 1:4 ratio and the Brain homogenate was transferred to Deep freezer (−70±10° C.) and stored until bioanalysis.
The PK parameters were evaluated using Phoenix WinNonlin® Ent-Version 8.3 by non-compartmental analysis.

[2] = Plasma, liver and adipose tissue concentration in db/db mice, day 36; assay type: in vivo, mice (Mus musculus; db/db C57BL/6); conditions: post 4 hours dosing on day 36; for concentration at 4 h: male, db/db C57BL/6, mouse, oral
Description: A mixture of DMSO (2%), Cremophor EL (2%), Tween 80 (1%), 0.5% methyl cellulose (35%), and water (60%) was used for the formulation. Doses were prepared at concentrations of 30 and 50 mg/kg. Administration was oral, daily for 36 days. Male mice (Mus musculus; db/db C57BL/6) aged 8-9 weeks and weighing less than or equal to 40 grams were used for the study. Groups were assigned 10 mice per group.
G2 and G3 plasma, liver and adipose tissue samples were collected post 4 hours dosing on day 36.

high fat diet mice = conditions: for % Body (percentage change in body weight): up to day 36
[3] = system: AMPK signal pathway in L6 cells; experiment: Western blot assay, L6 cells
Description: Samples for immunoblotting studies were prepared for electrophoresis by adding in a final concentration of 1× Laemmli loading buffer (supplemented with 5% 2-mercaptoethanol). Samples were then electrophorized by SDS-PAGE (4-15% or 4-20% Criterion TGX Precast gel, Bio-Rad) at a constant voltage within the range of 140V. Proteins were transferred to a nitrocellulose membrane (Bio-Rad) using the Trans-Blot Turbo transfer system (Bio-Rad). Membranes were blocked with 5% BSA in TBST for a minimum of 1 hour at room temperature before incubating with the following primary antibodies: • Phospho-AMPKα (Thr172) (40H9) Rabbit mAb (CST, cat no: 2535S), • AMPKα Antibody (CST, cat no: 2532S) • Phospho-Raptor (Ser792) Antibody (CST, cat no: 2083S) • Raptor (24C12) Rabbit mAb (CST, cat no: 2280S) • Phospho-Acetyl-CoA Carboxylase (Ser79) Antibody (CST, cat no: 3661S) • Acetyl-CoA Carboxylase Antibody (CST, cat no: 3662S) • AMPKα2 Antibody (CST, cat no: 2757S) • AMPKβ1 antibody (CST, cat no: 12063) • AMPKβ2 Antibody (CST, CST, cat no: 4148S) • AMPKγ3 Antibody (CST, cat no: 2550S). […]
After differentiation of cells (e.g., HSKM, C2C12, L6) for 5 days, medium was changed to DHEM without FBS and glucose for starving cells for 2 hours. […] The resultant reaction mixture was then assayed and semi-quantitative histogram analysis of Western Blotting (signal value) was used to determine results.

HSKM cells = experiment: CyQUANT Cytotoxicity Assay (G6PD assay), HSKM; conditions: treated 2 hours
Description: The CyQUANT Cytotoxicity Assay (Thermofisher, cat no: V23111) was used to detect damaged and dying cells by means of their release of glucose 6-phosphate dehydrogenase into the surrounding medium. Cells were plated in a 96-well microplate (500-25,000 cells/well in a 50-μL volume). Three sets of triplicate wells were reserved for the following controls: a no-cell control (medium alone), untreated cells, and completely lysed cells. Cells were starved for 2 h and then add the indicated AMPK activators (50 μL) to the experimental wells and incubate for 2 hours, 50 μL of 2× reaction mixture was added to each well. 1 μL of 100× Cell-Lysis buffer was added to the completely lysed control wells only. Cells were incubated at 37° C. for 10-30 minutes. Fluorescence was measured (excitation 530-560 nm, emission 580-600 nm) at 5-minute intervals to determine the optimal time point for the experiment.
To text toxicity, after differentiation of human skeletal muscle cells, HSKM were starved with DMEM medium without FBS/glucose for 2 hours. […] The resultant reaction mixture was then assayed for glucose 6-phosphate dehydrogenase release. An untreated control sample and completely lysed cells were detected for comparison. The fluorescence was measured in a microplate reader (excitation/emission ˜530/590 nm).

## O=c1[nH]c(-c2c[nH]c3cc(F)c(-c4ccc(C5(O)CCC5)cc4)c(F)c23)no1 [Compound I-11, 3-(4,6-difluoro-5-(4-(1-hydroxycyclobutyl)phenyl)-1H-indol-3-yl)-1,2,4-oxadiazol-5(4H)-one]
[1]; 5 mg/kg oral
  systemic exposure following oral administration: low systemic exposure
[1]; 0.5 h and 1 h
  concentrations in brain tissue: no concentrations in brain tissue
[1]; male, Wistar, plasma, 5 mg/kg oral vs 1 mg/kg intravenous
  bioavailability: 6%
[2]; 30 mg/kg
  Liver (ng/mL), PK concentration, Average: BLQ
[2]; 50 mg/kg
  Liver (ng/mL), PK concentration, Average: BLQ
[2]; adipose tissue, 30 mg/kg, read-out: Adipose tissue (ng/mL), PK concentration, Average
  concentration at 4 h: 19.5 ng/mL
[2]; adipose tissue, 50 mg/kg, read-out: Adipose tissue (ng/mL), PK concentration, Average
  concentration at 4 h: 11 ng/mL
[2]; plasma, 30 mg/kg, read-out: Plasma (ng/mL), PK concentration, Average
  concentration at 4 h: 244 ng/mL
[2]; plasma, 50 mg/kg, read-out: Plasma (ng/mL), PK concentration, Average
  concentration at 4 h: 197 ng/mL
High fat diet mice; 30 mg/kg p.o. QD, Day 14
  % fat mass: 53.75 ± 0.88%
  area (cm^2; DEXA scan): 13.26 ± 0.24 cm^2
  bone mineral content (BMC): 1.04 ± 0.02
  bone mineral density (BMD): 0.08 ± 0.00
  fat mass (gm): 27.97 ± 0.67 gm
  lean+bone mineral content (BMC-gm): 24.11 ± 0.71 gm
  total mass (gm): 52.05 ± 1.04 gm
High fat diet mice; 30 mg/kg p.o. QD, Day −3
  % fat mass: 46.39 ± 0.83%
  area (cm^2; DEXA scan): 12.61 ± 0.23 cm^2
  bone mineral content (BMC): 1.01 ± 0.01
  bone mineral density (BMD): 0.08 ± 0.00
  fat mass (gm): 23.20 ± 0.60 gm
  lean+bone mineral content (BMC-gm): 26.78 ± 0.50 gm
  total mass (gm): 49.96 ± 0.75 gm
High fat diet mice; 30 mg/kg p.o. QD
  % Body (percentage change in body weight): 1.40 ± 0.21%
High fat diet mice; 50 mg/kg p.o. QD, Day 14
  % fat mass: 50.05 ± 1.02%
  area (cm^2; DEXA scan): 12.93 ± 0.23 cm^2
  bone mineral content (BMC): 1.04 ± 0.02
  bone mineral density (BMD): 0.08 ± 0.00
  fat mass (gm): 25.95 ± 0.84 gm
  lean+bone mineral content (BMC-gm): 25.83 ± 0.49 gm
  total mass (gm): 51.78 ± 0.85 gm
High fat diet mice; 50 mg/kg p.o. QD, Day −3
  % fat mass: 46.37 ± 2.15%
  area (cm^2; DEXA scan): 12.56 ± 0.30 cm^2
  bone mineral content (BMC): 1.01 ± 0.02
  bone mineral density (BMD): 0.08 ± 0.00
  fat mass (gm): 23.44 ± 1.29 gm
  lean+bone mineral content (BMC-gm): 26.97 ± 1.03 gm
  total mass (gm): 50.40 ± 0.80 gm
High fat diet mice; 50 mg/kg p.o. QD
  % Body (percentage change in body weight): −0.34 ± 0.73%
High fat diet mice; 30 and 50 mg/kg p.o. QD for 36 days
  clinical signs, morbidity, mortality: no observations of clinical signs or morbidity, and no mortality
[3]
  pAMPK/pACC/AMPKα2γ3 expression: can also induce
HSKM cells
  toxicity compared to reference compounds MK-8722 and PF-06409577 (G6PD release): less toxicity
